The values that follow are results of earlier work, collected in US11707455B2, “Pharmaceutical composition containing dabigatran etexilate and preparation method thereof” (SHANGHAI WD PHARMACEUTICAL CO., LTD, priority 2018, dated 2023).

The conditions of data set [1]: in vivo.
The conditions of data set [2]: pH 1.

With `CCCCCCOC(=O)N=C(N)c1ccc(NCc2nc3cc(C(=O)N(CCC(=O)OCC)c4ccccn4)ccc3n2C)cc1.CS(=O)(=O)O` [DEM], the Cmax variation range in data set [1] is listed as at most 5 folds. For the same compound, the maximum solubility result in data set [2] is “greater than 80 mg/mL”.
